Experimental data published in PubChem BioAssay (NCI).
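Five concentrations, 48 hours, 96-well plates. Abbreviation: GI50, concentration required for 50% inhibition of growth. TGI marks complete inhibition of growth.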

Assays:
Test in all cases: growth of human tumour cells (NCI), 48 h
[1] = test system: NCI-H23 lung
[2] = test system: HS 578T breast
[3] = test system: K-562 leukemia
[4] = test system: COLO 205 colon
[5] = test system: EKVX NSCLC
[6] = test system: UO-31 renal
[7] = test system: SK-OV-3 ovarian
[8] = test system: T-47D breast
[9] = test system: A498 renal
[10] = test system: SN12C renal
[11] = test system: CAKI-1 renal
[12] = test system: RXF 393 renal
[13] = test system: HCT-116 colon
[14] = test system: RPMI-8226 leukemia
[15] = test system: HCT-15 colon
[16] = test system: MDA-MB-231 breast
[17] = test system: PC-3 prostate
[18] = test system: SNB-75 CNS
[19] = test system: BT-549 breast
[20] = test system: M14 melanoma
[21] = test system: DU-145 prostate
[22] = test system: UACC-257 melanoma
[23] = test system: MDA-MB-435
[24] = test system: HL-60(TB) leukemia
[25] = test system: NCI-H460 lung
[26] = test system: OVCAR-4 ovarian
[27] = test system: NCI/ADR-RES ovarian
[28] = test system: A549 NSCLC
[29] = test system: SR leukemia
[30] = test system: NCI-H226 lung
[31] = test system: CCRF-CEM leukemia
[32] = test system: SW-620 colon
[33] = test system: HT29 colon
[34] = test system: SF-539 CNS
[35] = test system: OVCAR-8 ovarian
[36] = test system: HOP-62 NSCLC
[37] = test system: KM12 colon
[38] = test system: ACHN renal
[39] = test system: IGROV1 ovarian
[40] = test system: 786-0 renal
[41] = test system: TK-10 renal
[42] = test system: OVCAR-3 ovarian
[43] = test system: SF-295 CNS
[44] = test system: MALME-3M melanoma
[45] = test system: HOP-92 NSCLC
[46] = test system: HCC-2998 colon
[47] = test system: NCI-H522 lung
[48] = test system: MCF7 breast
[49] = test system: MOLT-4 leukemia
[50] = test system: LOX IMVI melanoma
[51] = test system: UACC-62 melanoma
[52] = test system: SK-MEL-5 melanoma
[53] = test system: SK-MEL-28 melanoma
[54] = test system: SK-MEL-2 melanoma
[55] = test system: SF-268 CNS
[56] = test system: U251 CNS
[57] = test system: SNB-19 CNS
[58] = test system: OVCAR-5 ovarian

SMILES: O=C(NC(=S)Nc1ccccn1)c1ccccc1
- GI50 [1]: > 100 µM
- TGI [1]: > 100 µM
- GI50 [2]: 71.5 µM
- TGI [2]: > 100 µM
- GI50 [3]: > 100 µM
- TGI [3]: > 100 µM
- GI50 [4]: > 100 µM
- TGI [4]: > 100 µM
- GI50 [5]: 85.2 µM
- TGI [5]: > 100 µM
- GI50 [6]: 39.2 µM
- TGI [6]: > 100 µM
- GI50 [7]: > 100 µM
- TGI [7]: > 100 µM
- GI50 [8]: 5.98 µM
- TGI [8]: > 100 µM
- GI50 [9]: 50.8 µM
- TGI [9]: > 100 µM
- GI50 [10]: > 100 µM
- TGI [10]: > 100 µM
- GI50 [11]: > 100 µM
- TGI [11]: > 100 µM
- GI50 [12]: > 100 µM
- TGI [12]: > 100 µM
- GI50 [13]: > 100 µM
- TGI [13]: > 100 µM
- GI50 [14]: > 100 µM
- TGI [14]: > 100 µM
- GI50 [15]: 70.7 µM
- TGI [15]: > 100 µM
- GI50 [16]: > 100 µM
- TGI [16]: > 100 µM
- GI50 [17]: > 100 µM
- TGI [17]: > 100 µM
- GI50 [18]: > 100 µM
- TGI [18]: > 100 µM
- GI50 [19]: > 100 µM
- TGI [19]: > 100 µM
- GI50 [20]: > 100 µM
- TGI [20]: > 100 µM
- GI50 [21]: > 100 µM
- TGI [21]: > 100 µM
- GI50 [22]: > 100 µM
- TGI [22]: > 100 µM
- GI50 [23]: > 100 µM
- TGI [23]: > 100 µM
- GI50 [24]: > 100 µM
- TGI [24]: > 100 µM
- GI50 [25]: > 100 µM
- TGI [25]: > 100 µM
- GI50 [26]: 24.4 µM
- TGI [26]: > 100 µM
- GI50 [27]: > 100 µM
- TGI [27]: > 100 µM
- GI50 [28]: > 100 µM
- TGI [28]: > 100 µM
- GI50 [29]: > 100 µM
- TGI [29]: > 100 µM
- GI50 [30]: > 100 µM
- TGI [30]: > 100 µM
- GI50 [31]: > 100 µM
- TGI [31]: > 100 µM
- GI50 [32]: > 100 µM
- TGI [32]: > 100 µM
- GI50 [33]: > 100 µM
- TGI [33]: > 100 µM
- GI50 [34]: > 100 µM
- TGI [34]: > 100 µM
- GI50 [35]: > 100 µM
- TGI [35]: > 100 µM
- GI50 [36]: > 100 µM
- TGI [36]: > 100 µM
- GI50 [37]: > 100 µM
- TGI [37]: > 100 µM
- GI50 [38]: > 100 µM
- TGI [38]: > 100 µM
- GI50 [39]: 61.7 µM
- TGI [39]: > 100 µM
- GI50 [40]: > 100 µM
- TGI [40]: > 100 µM
- GI50 [41]: > 100 µM
- TGI [41]: > 100 µM
- GI50 [42]: 93.4 µM
- TGI [42]: > 100 µM
- GI50 [43]: > 100 µM
- TGI [43]: > 100 µM
- GI50 [44]: > 100 µM
- TGI [44]: > 100 µM
- GI50 [45]: 83.9 µM
- TGI [45]: > 100 µM
- GI50 [46]: > 100 µM
- TGI [46]: > 100 µM
- GI50 [47]: > 100 µM
- TGI [47]: > 100 µM
- GI50 [48]: 1.97 µM
- TGI [48]: > 100 µM
- GI50 [49]: > 100 µM
- TGI [49]: > 100 µM
- GI50 [50]: > 100 µM
- TGI [50]: > 100 µM
- GI50 [51]: > 100 µM
- TGI [51]: > 100 µM
- GI50 [52]: > 100 µM
- TGI [52]: > 100 µM
- GI50 [53]: > 100 µM
- TGI [53]: > 100 µM
- GI50 [54]: > 100 µM
- TGI [54]: > 100 µM
- GI50 [55]: > 100 µM
- TGI [55]: > 100 µM
- GI50 [56]: > 100 µM
- TGI [56]: > 100 µM
- GI50 [57]: > 100 µM
- TGI [57]: > 100 µM
- GI50 [58]: > 100 µM
- TGI [58]: > 100 µM

SMILES: O=C(/C=C/c1cc2ccccc2[nH]c1=O)c1ccc(Cl)cc1
- GI50 [1]: 27.3 µM
- TGI [1]: 97.7 µM
- GI50 [2]: > 48 µM
- TGI [2]: > 100 µM
- GI50 [3]: > 71.3 µM
- TGI [3]: > 100 µM
- GI50 [4]: 37.4 µM
- TGI [4]: > 80 µM
- GI50 [5]: 28.5 µM
- TGI [5]: > 100 µM
- GI50 [6]: > 23 µM
- TGI [6]: > 100 µM
- GI50 [7]: 55.1 µM
- TGI [7]: > 100 µM
- GI50 [8]: 27.3 µM
- TGI [8]: > 100 µM
- GI50 [9]: > 56.3 µM
- TGI [9]: > 100 µM
- GI50 [10]: 30.8 µM
- TGI [10]: > 100 µM
- GI50 [11]: 16.8 µM
- TGI [11]: > 32.1 µM
- GI50 [12]: 22.9 µM
- TGI [12]: > 60.2 µM
- GI50 [13]: 18 µM
- TGI [13]: 49.1 µM
- GI50 [14]: 13.8 µM
- TGI [14]: 50.1 µM
- GI50 [15]: 20.2 µM
- TGI [15]: > 58.7 µM
- GI50 [16]: 25.5 µM
- TGI [16]: 61.3 µM
- GI50 [17]: > 67.7 µM
- TGI [17]: > 100 µM
- GI50 [18]: 22.4 µM
- TGI [18]: 61.5 µM
- GI50 [19]: 24.9 µM
- TGI [19]: > 55.6 µM
- GI50 [20]: 28.7 µM
- TGI [20]: > 73.5 µM
- GI50 [21]: 23 µM
- TGI [21]: > 78.8 µM
- GI50 [22]: 33.5 µM
- TGI [22]: > 77.7 µM
- GI50 [23]: 18.8 µM
- TGI [23]: > 50.8 µM
- TGI [24]: > 100 µM
- GI50 [25]: 26.2 µM
- TGI [25]: > 57.3 µM
- GI50 [26]: 17.3 µM
- TGI [26]: > 100 µM
- GI50 [27]: 21.9 µM
- TGI [27]: 56.2 µM
- GI50 [28]: 30.7 µM
- TGI [28]: > 100 µM
- GI50 [29]: 15.6 µM
- TGI [29]: > 57.6 µM
- GI50 [30]: 41 µM
- TGI [30]: > 73 µM
- GI50 [31]: 21.6 µM
- TGI [31]: > 100 µM
- GI50 [32]: 20.5 µM
- TGI [32]: > 49.5 µM
- GI50 [33]: 21 µM
- TGI [33]: > 60.8 µM
- GI50 [34]: 16.9 µM
- TGI [34]: 39.3 µM
- GI50 [35]: 25.3 µM
- TGI [35]: > 59.6 µM
- GI50 [36]: 29.6 µM
- TGI [36]: > 76.2 µM
- GI50 [37]: 22.3 µM
- TGI [37]: > 54.6 µM
- GI50 [38]: 33 µM
- TGI [38]: > 64.9 µM
- GI50 [39]: 23.3 µM
- TGI [39]: > 52.8 µM
- GI50 [40]: > 37.2 µM
- TGI [40]: > 100 µM
- GI50 [41]: 26.4 µM
- TGI [41]: > 59.3 µM
- GI50 [42]: 27.3 µM
- TGI [42]: > 67.6 µM
- GI50 [43]: 23.2 µM
- TGI [43]: > 72.6 µM
- GI50 [44]: 37.2 µM
- TGI [44]: > 70.7 µM
- GI50 [45]: 21.6 µM
- TGI [45]: 76.8 µM
- GI50 [46]: 25.1 µM
- TGI [46]: 56.6 µM
- GI50 [47]: 15.7 µM
- TGI [47]: 32.1 µM
- GI50 [48]: 17.9 µM
- TGI [48]: > 100 µM
- GI50 [49]: 22.8 µM
- TGI [49]: > 100 µM
- GI50 [50]: 19.4 µM
- TGI [50]: > 60.5 µM
- GI50 [51]: 26.4 µM
- TGI [51]: > 81.6 µM
- GI50 [52]: 47.6 µM
- TGI [52]: > 100 µM
- GI50 [53]: > 56.1 µM
- TGI [53]: > 89.8 µM
- GI50 [54]: 30.1 µM
- TGI [54]: > 63.6 µM
- GI50 [55]: 28 µM
- TGI [55]: > 85.8 µM
- GI50 [56]: 19.1 µM
- TGI [56]: > 48.5 µM
- GI50 [57]: 28.2 µM
- TGI [57]: > 100 µM
- GI50 [58]: 38.2 µM
- TGI [58]: 99 µM
